Marks after values point to notes of the source that are not given here.
What was measured:
[1] = Stereoselective pharmacokinetics in rat plasma; format: in vivo, Sprague–Dawley rats
Procedure: The pharmacokinetic data were optimally characterized by a noncompartmental model. The mean concentration-time profiles for the farrerol enantiomers are illustrated in Figure 3, along with the corresponding key pharmacokinetic parameters presented in Table 2.
Twenty-five rats were randomly divided into five experimental groups (A, B, C, D, and E). Groups A and B received farrerol racemate via intragastric administration at doses of 150 mg/kg and 75 mg/kg, respectively. Group C was administered 4 mg/kg of farrerol racemate through caudal intravenous administration. […] Blood samples (300 μL) were obtained from the orbital venous plexus into heparinized tubes at various time points: 0.25, 0.5, 1, 2, 3, 5, 7, 9, 12, and 24 h following gavage administration, and at 0.083, 0.167, 0.25, 0.5, 1, 1.5, 2, 2.5, 3, and 5 h post-intravenous administration. Plasma was separated by centrifugation (3000 rpm, 10 min) and stored at −80 °C until analysis.
A total of 150 μL of plasma and 50 μL of the internal standard solution were added to a 1.5 mL EP tube and mixed using a vortex for 30 s. Subsequently, 500 μL of ether was introduced, and the mixture was vortexed for 5 min. Following centrifugation at 10,000 rpm for 10 min, the resulting organic layer was carefully transferred to a separate tube. Each sample underwent two extraction processes. The resulting ether layer was then evaporated to dryness using a continuous air stream at room temperature. A 250 μL aliquot of methanol was employed to re-dissolve the residue, utilizing vortex mixing for 2 min. Following centrifugation at 14,000 rpm for 10 min, the supernatant was subsequently injected into the HPLC-MS system for analysis.
Stereoselective chromatographic analysis of farrerol enantiomers was conducted utilizing an ACQUITY UPLC I-Class UPLC system (Waters, Milford, MA, USA), which is equipped with a quaternary pump and an autosampler. The chiral separation was carried out employing a Chiralpak OJ-RH column (250 mm × 4.6 mm, 5 μm), which was obtained from Daicel Chemical Industries (Shanghai, China). The mobile phase consisted of ACN-H2O (60:40, v/v), and the constant flow rate was 0.5 mL/min. The column temperature was set at 25 °C, and the injection volume was 10 μL.
Mass detection was conducted using a triple quadrupole mass spectrometer (Waters Co., USA) equipped with an electrospray ionization (ESI) source. The detection of enantiomers and internal standards (IS) was carried out in multiple reaction monitoring (MRM) mode utilizing negative ionization. The m/z 299→179 for enantiomers and m/z 267→252 for IS were selected as detecting ions for quantitation. The collision energies (CE) were established at 22 eV and 20 eV, respectively. The primary mass spectrometry (MS) parameters were configured as follows: capillary voltage was set to 3.5 kV, ion source temperature was maintained at 150 °C, desolvation gas flow rate was 800 L/h, and the cone voltage (CV) was adjusted to 1.3 V.
Pharmacokinetic analysis was conducted utilizing the Drug and Statistics (DAS) 2.0 software provided by the Chinese Pharmacological Society. To assess the differences in pharmacokinetic parameters, the IC50 values of the evaluated CYP enzymes and the permeability coefficients between the two farrerol enantiomers, paired sample t-tests and independent sample t-tests were performed. Statistical significance was defined as * p < 0.05 and ** p < 0.01. All results are presented as mean values ± standard deviation (SD).

[2] = Rat single-pass intestinal perfusion; format: in vivo, Sprague–Dawley rats
Procedure: The absorption rate constant (Ka) and permeability coefficient (Peff) were calculated using the following equation: […] The single-pass intestinal perfusion studies in rats were conducted following previously established methodologies. […] Before the surgical procedure, animals were fasted overnight with water ad libitum. Rats were anesthetized via intraperitoneal administration of 20% urethane at a dosage of 6 mL/kg and subsequently positioned on a heating pad. Their normal body temperature (37.0 ± 0.5 °C) was sustained using an infrared lamp. A midline incision was made to open the abdomen, allowing for the exposure of 35–45 cm of the small intestine, along with a 10 cm segment […]. This segment was cannulated with Teflon tubing (0.42 cm in diameter) at both the proximal and distal ends, which were then secured with silk sutures. This segment was gently flushed with warmed normal saline to remove intestinal contents. Then, farrerol racemate maintained at 37 °C was perfused through the lumen of the small intestine at a flow rate of 0.2 mL/min. After a 30 min equilibration period to reach steady-state outlet concentrations, the perfusate samples were collected every 15 min for 120 min in micro-centrifuge tubes. The length of the small intestinal segment was measured following the last collection. All collected samples were stored at −20 °C. 500 μL of collected intestinal perfusion samples were placed in an EP tube and then dried with nitrogen at 37 °C. The residue was redissolved and precipitated with 200 μL of methanol by vortex-mixing for 5 min. Following centrifugation at 13,000 rpm for 10 min, the supernatant samples were analyzed using the previously validated RP-HPLC-DAD method. The chiral HPLC technique employed for the analysis of farreol enantiomers in intestinal perfusate aligned with the chromatographic procedure outlined in Section 3.4.3. This method underwent validation for parameters including linearity, range, extraction recovery, specificity, precision, and accuracy. […] The extraction recoveries of farrerol in intestinal perfusate at three different concentration levels ranged from 90.57% to 95.57%.

[3] = i.g. of farrerol racemate (75 mg/kg)
[4] = i.g. of farrerol racemate (150 mg/kg)
[5] = i.g. of the single enantiomer (75 mg/kg)
[6] = i.v. of farrerol racemate (4 mg/kg)

## Cc1c(O)c(C)c2c(c1O)C(=O)CC(c1ccc(O)cc1)O2 (single isomer, unassigned; (-)) [(−)-farrerol, 2,3-dihydro-5,7-dihydroxy-2-(4-hydroxyphenyl)-6,8-dimethyl-4-benzopyrone]
[1]; Sprague-Dawley, rat, plasma, po, 75 mg/kg, i.g. of the single enantiomer (75 mg/kg)
  half-life: 12 ± 0.5 h
[1]; Sprague-Dawley, rat, plasma, po, 75 mg/kg, i.g. of the single enantiomer (75 mg/kg), read-out: MRT(0–t)
  MRT last: 10.8 ± 0.47 h
[1]; [3]
  AUC(0–t): 428.3 ± 88.2 ** ng/mL*h
  AUC(0–∞): 1341.8 ± 337.6 ** ng/mL*h
  Cmax: 80.5 ± 7.5 ** ng/mL
  F: 2.3 ± 0.05 ** %
  MRT(0–t): 5.61 ± 0.56 h
  Tmax: 1.00 * h
  t1/2: 8.5 ± 1.5 ** h
[1]; [4]
  AUC(0–t): 1622.6 ± 84.3 ** ng/mL*h
  AUC(0–∞): 1837.8 ± 226.9 ** ng/mL*h
  Cmax: 390.0 ± 35.3 * ng/mL
  F: 4.3 ± 0.7 * %
  MRT(0–t): 4.65 ± 0.06 h
  Tmax: 1.50 h
  t1/2: 3.5 ± 0.4 ** h
[1]; [5]
  AUC(0–t): 6746.8 ± 298.7 ng·h/mL
  AUC(0–∞): 8572.4 ± 221.0 ng·h/mL
  Cmax: 520.9 ± 91.7 ng/mL
  Tmax: 2.00 ^# h
[1]; [6]
  AUC(0–t): 1012.4 ± 88.1 ** ng/mL*h
  AUC(0–∞): 1195.7 ± 49.7 ** ng/mL*h
  Cmax: 1695.0 ± 224.6 ** ng/mL
  MRT(0–t): 3.48 ± 0.07 * h
  Tmax: 0.08 h
  t1/2: 19.0 ± 3.7 * h
[1]; single enantiomers orally administered (75 mg/kg)
  chiral transformation between enantiomers: no chiral transformation
[2]; Colon, farrerol racemate 66.00 μg·mL^−1
  Peff: 1.12 ± 0.41 ×10^−1 cm·min^−1
[2]; Colon, farrerol racemate 132.00 μg·mL^−1
  Peff: 0.95 ± 0.10 ×10^−1 cm·min^−1
[2]; Colon, farrerol racemate 132.00 μg·mL^−1 + verapamil
  Peff: 1.42 ± 0.23 ×10^−1 cm·min^−1
[2]; Colon, farrerol racemate 180.00 μg·mL^−1
  Peff: 1.12 ± 0.17 ×10^−1 cm·min^−1
[2]; Duodenum, farrerol racemate 66.00 μg·mL^−1
  Peff: 1.33 ± 0.03 ×10^−1 cm·min^−1
[2]; Duodenum, farrerol racemate 132.00 μg·mL^−1
  Peff: 1.17 ± 0.10 ×10^−1 cm·min^−1
[2]; Duodenum, farrerol racemate 132.00 μg·mL^−1 + verapamil
  Peff: 1.43 ± 0.17 ×10^−1 cm·min^−1
[2]; Duodenum, farrerol racemate 180.00 μg·mL^−1
  Peff: 1.33 ± 0.11 ×10^−1 cm·min^−1
[2]; Ileum, farrerol racemate 66.00 μg·mL^−1
  Peff: 1.14 ± 0.22 ×10^−1 cm·min^−1
[2]; Ileum, farrerol racemate 132.00 μg·mL^−1
  Peff: 0.89 ± 0.10 ×10^−1 cm·min^−1
[2]; Ileum, farrerol racemate 132.00 μg·mL^−1 + verapamil
  Peff: 0.77 ± 0.11 ×10^−1 cm·min^−1
[2]; Ileum, farrerol racemate 180.00 μg·mL^−1
  Peff: 0.78 ± 0.07 ×10^−1 cm·min^−1
[2]; Jejunum, farrerol racemate 66.00 μg·mL^−1
  Peff: 1.17 ± 0.24 ×10^−1 cm·min^−1
[2]; Jejunum, farrerol racemate 132.00 μg·mL^−1
  Peff: 0.74 ± 0.05 ×10^−1 cm·min^−1
[2]; Jejunum, farrerol racemate 132.00 μg·mL^−1 + verapamil
  Peff: 1.12 ± 0.10 ×10^−1 cm·min^−1
[2]; Jejunum, farrerol racemate 180.00 μg·mL^−1
  Peff: 1.07 ± 0.10 ×10^−1 cm·min^−1
